Assays:
[1] = Cytotoxicity against African green monkey Vero 76 cells infected with Zika virus assessed as reduction in cell viability by visual analysis; assay type: toxicity, cell-based; settings: chlorocebus sabaeus
[2] = Cytotoxicity against vervet monkey MA-104 cells infected with MERS-CoV assessed as reduction in cell viability by visual assay; assay type: toxicity, cell-based; settings: cercopithecus pygerythrus
[3] = (§1) Selectivity index, ratio of CC50 for cytotoxicity against African green monkey Vero cells infected with DENV-2 assessed as reduction in cell viability by neutral red analysis to EC50 for antiviral activity against DENV-2 infected in human Huh-7 cells assessed as reduction in virus-induced cytopathic effect by neutral red analysis; assay type: toxicity, cell-based; settings: read-out: Ratio CC50/EC50
[4] = Selectivity index, ratio of CC50 for cytotoxicity against African green monkey Vero 76 infected with Zika virus assessed as reduction in cell viability by visual analysis to EC50 for antiviral activity against Zika virus infected in African green monkey Vero 76 cells assessed as reduction in virus-induced cytopathic effect by visual analysis; assay type: toxicity, cell-based; settings: Vero 76 cells infected with Zika virus, read-out: Ratio CC50/EC50
[5] = system: Zika virus; test: Antiviral activity against Zika virus infected in African green monkey Vero 76 cells assessed as reduction in virus-induced cytopathic effect measured after 15 to 30 mins by visual analysis; assay type: functional, organism-based
[6] = (§2) Selectivity index, ratio of CC50 for cytotoxicity against African green monkey Vero 76 cells infected with Rift valley fever virus assessed as reduction in cell viability by visual analysis to EC50 for antiviral activity against Rift valley fever virus infected in African green monkey Vero 76 cells assessed as reduction in virus-induced cytopathic effect by visual analysis; assay type: toxicity, cell-based; settings: read-out: Ratio CC50/EC50
[7] = Cytotoxicity against African green monkey Vero cells infected with DENV-2 assessed as reduction in cell viability by visual assay; assay type: toxicity, cell-based; settings: chlorocebus sabaeus
[8] = as §2, with “neutral red dye based” for “visual”; assay type: toxicity; settings: read-out: Ratio CC50/EC50
[9] = Cytotoxicity against African green monkey Vero 76 cells infected with Rift valley fever virus assessed as reduction in cell viability by neutral red dye based analysis; assay type: toxicity; settings: chlorocebus sabaeus
[10] = system: Rift Valley fever virus; test: Antiviral activity against Rift valley fever virus infected in African green monkey Vero 76 cells assessed as reduction in virus-induced cytopathic effect measured after 15 to 30 mins by visual analysis; assay type: functional, organism-based
[11] = system: dengue virus type 2; test: Antiviral activity against DENV-2 infected in African green monkey Vero cells assessed as reduction in virus-induced cytopathic effect measured after 15 to 30 mins by neutral red based analysis; assay type: functional, organism-based
[12] = system: Rift Valley fever virus; test: Antiviral activity against Rift valley fever virus infected in African green monkey Vero 76 cells assessed as reduction in virus-induced cytopathic effect measured after 15 to 30 mins by neutral red dye based analysis; assay type: functional, organism-based
[13] = Selectivity index, ratio of CC50 for cytotoxicity against African green monkey Vero 76 cells infected with MERS-CoV assessed as reduction in cell viability by visual analysis to EC50 for antiviral activity against MERS-CoV infected in African green monkey Vero 76 cells assessed as reduction in virus-induced cytopathic effect by visual analysis; assay type: toxicity, cell-based; settings: read-out: Ratio CC50/EC50
[14] = Cytotoxicity against dog MDCK cells infected with Influenza A virus H1N1 assessed as reduction in cell viability by neutral red dye based assay; assay type: toxicity, Canis lupus familiaris
[15] = system: Influenza A virus; test: Antiviral activity against Influenza A virus H1N1 infected in dog MDCK cells assessed as reduction in virus-induced cytopathic effect measured after 15 to 30 mins by neutral red based analysis; assay type: functional, organism-based
[16] = Cytotoxicity against African green monkey Vero 76 cells infected with Rift valley fever virus assessed as reduction in cell viability by visual analysis; assay type: toxicity, cell-based; settings: chlorocebus sabaeus
[17] = Cytotoxicity against African green monkey Vero 76 cells infected with Zika virus assessed as reduction in cell viability by neutral red dye based assay; assay type: toxicity; settings: chlorocebus sabaeus
[18] = system: Yellow fever virus; test: Antiviral activity against Yellow fever virus infected in human Huh-7 cells assessed as reduction in virus-induced cytopathic effect measured after 15 to 30 mins by visual analysis; assay type: functional, organism-based; settings: huh-7
[19] = as §1, with “visual” for “neutral red”; assay type: toxicity, cell-based; settings: read-out: Ratio CC50/EC50
[20] = Cytotoxicity against African green monkey Vero cells infected with DENV-2 assessed as reduction in cell viability by neutral red dye based assay; assay type: toxicity; settings: chlorocebus sabaeus
[21] = Cytotoxicity against dog MDCK cells infected with Influenza A virus H1N1 assessed as reduction in cell viability by visual analysis; assay type: toxicity, cell-based, Canis lupus familiaris
[22] = Selectivity index, ratio of CC50 for cytotoxicity against African green monkey Vero 76 cells infected with Zika virus assessed as reduction in cell viability by neutral red dye based analysis to EC50 for antiviral activity against Zika virus infected in African green monkey Vero 76 cells assessed as reduction in virus-induced cytopathic effect by neutral red based spectrophotometric analysis; assay type: toxicity; settings: read-out: Ratio CC50/EC50
[23] = system: Zika virus; test: Antiviral activity against Zika virus infected in African green monkey Vero 76 cells assessed as reduction in virus-induced cytopathic effect measured after 15 to 30 mins by neutral red based spectrophotometric analysis; assay type: functional, organism-based
[24] = system: Influenza A virus; test: Antiviral activity against Influenza A virus H1N1 infected in dog MDCK cells assessed as reduction in virus-induced cytopathic effect measured after 15 to 30 mins by visual analysis; assay type: functional, organism-based
[25] = system: dengue virus type 2; test: Antiviral activity against DENV-2 infected in African green monkey Vero cells assessed as reduction in virus-induced cytopathic effect measured after 15 to 30 mins by visual analysis; assay type: functional, organism-based
[26] = system: Middle East respiratory syndrome-related coronavirus; test: Antiviral activity against MERS-CoV infected in vervet monkey MA-104 cells assessed as reduction in virus-induced cytopathic effect measured after 15 to 30 mins by neutral red dye based assay; assay type: functional, organism-based; settings: MA104
[27] = Selectivity index, ratio of CC50 for cytotoxicity against African green monkey Vero 76 cells infected with MERS-CoV assessed as reduction in cell viability by neutral red dye based analysis to EC50 for antiviral activity against MERS-CoV infected in African green monkey Vero 76 cells assessed as reduction in virus-induced cytopathic effect by neutral red dye based analysis; assay type: toxicity; settings: read-out: Ratio CC50/EC50
[28] = system: Middle East respiratory syndrome-related coronavirus; test: Antiviral activity against MERS-CoV infected in vervet monkey MA-104 cells assessed as reduction in virus-induced cytopathic effect measured after 15 to 30 mins by visual analysis; assay type: functional, organism-based; settings: MA104
[29] = Cytotoxicity against vervet monkey MA-104 cells infected with MERS-CoV assessed as reduction in cell viability by neutral red dye based assay; assay type: toxicity; settings: cercopithecus pygerythrus
[30] = system: Huh-7; test: Cytotoxicity against human Huh-7 cells infected with Yellow fever virus assessed as reduction in cell viability by visual assay; assay type: functional
[31] = system: dengue virus type 2; test: Antiviral activity against DENV-2 infected in human Huh-7 cells assessed as reduction in virus-induced cytopathic effect measured after 15 to 30 mins by neutral red based analysis; assay type: functional, organism-based
[32] = system: Huh-7; test: Cytotoxicity against human Huh-7 cells infected with DENV-2 assessed as reduction in cell viability by visual analysis; assay type: functional
[33] = system: Middle East respiratory syndrome-related coronavirus; test: Antiviral activity against MERS-CoV infected in African green monkey Vero 76 cells assessed as reduction in virus-induced cytopathic effect measured after 15 to 30 mins by neutral red dye based analysis; assay type: functional, organism-based
[34] = system: Yellow fever virus; test: Antiviral activity against Yellow fever virus infected in human Huh-7 cells assessed as reduction in virus-induced cytopathic effect measured after 15 to 30 mins by neutral red based analysis; assay type: functional, organism-based
[35] = Cytotoxicity against African green monkey Vero 76 cells infected with MERS-CoV assessed as reduction in cell viability by neutral red dye based analysis; assay type: toxicity; settings: chlorocebus sabaeus
[36] = Selectivity index, ratio of CC50 for cytotoxicity against human Huh-7 cells infected with Yellow fever virus assessed as reduction in cell viability by neutral red dye based assay to EC50 for antiviral activity against Yellow fever virus infected in human Huh-7 cells assessed as reduction in virus-induced cytopathic effect by neutral red based analysis; assay type: toxicity; settings: read-out: Ratio CC50/EC50
[37] = Selectivity index, ratio of CC50 for cytotoxicity against dog MDCK cells infected with Influenza A virus H1N1 assessed as reduction in cell viability by neutral red dye based analysis to EC50 for antiviral activity against Influenza A virus H1N1 infected in dog MDCK cells assessed as reduction in virus-induced cytopathic effect by neutral red dye based analysis; assay type: toxicity; settings: read-out: Ratio CC50/EC50
[38] = system: Influenza B virus; test: Antiviral activity against Influenza B virus infected in dog MDCK cells
[39] = Cytotoxicity against dog MDCK cells infected with Influenza B virus; assay type: toxicity, cell-based, Canis lupus familiaris
[40] = Cytotoxicity against dog MDCK cells infected with Influenza A virus H3N2; assay type: toxicity, cell-based, Canis lupus familiaris
[41] = system: Influenza A virus; test: Antiviral activity against Influenza A virus H3N2 infected in dog MDCK cells; assay type: functional, organism-based
[42] = system: Influenza A virus; test: Antiviral activity against Influenza A virus H1N1 infected in dog MDCK cells; assay type: functional, organism-based
[43] = system: Influenza A virus; test: Antiviral activity against Influenza A virus H7N9 infected in dog MDCK cells; assay type: functional, organism-based
[44] = Cytotoxicity against dog MDCK cells infected with Influenza A virus H1N1; assay type: toxicity, cell-based, Canis lupus familiaris

**Q.** Which results are given for `Nc1ncnc2c([C@@H]3N[C@H](CO)[C@@H](O)[C@H]3O)n[nH]c12`?
**A.** CC50 [1]: 100 µM; CC50 [2]: 42 µM; selectivity ratio [3]: 3.5; selectivity ratio [4]: 3.1; EC50 [5]: 32 µM; selectivity ratio [6]: 8.3; CC50 [7]: > 100 µM; selectivity ratio [8]: 7.6; CC50 [9]: > 100 µM; EC50 [10]: 4.2 µM; EC50 [11]: 2.8 µM; EC50 [12]: 4.2 µM; selectivity ratio [13]: 4.9; CC50 [14]: > 100 µM; EC50 [15]: > 100 µM; CC50 [16]: 8.3 µM; CC50 [17]: 13 µM; EC50 [18]: Not Active; selectivity ratio [19]: 3.1; CC50 [20]: 2.8 µM; CC50 [21]: > 100 µM; selectivity ratio [22]: 1.1; EC50 [23]: 12 µM; EC50 [24]: > 100 µM; EC50 [25]: 3.2 µM; EC50 [26]: 9.9 µM; selectivity ratio [27]: 4.5; EC50 [28]: 8.6 µM; CC50 [29]: 45 µM

**Q.** Which CC50 [30] does the source give for `CC(C)OC(=O)[C@H](C)N[P@](=O)(OC[C@H]1N[C@@H](c2c[nH]c3c(N)ncnc23)[C@H](O)[C@@H]1O)Oc1ccccc1` here?
**A.** > 100 µM

**Q.** And the EC50 [31]?
**A.** > 100 µM

**Q.** And the CC50 [9]?
**A.** > 100 µM

**Q.** What about the EC50 [12] of the same molecule?
**A.** > 100 µM

**Q.** What about the CC50 [32] of the same molecule?
**A.** > 100 µM

**Q.** What about the EC50 [33] of the same molecule?
**A.** > 100 µM

**Q.** What about the CC50 [14] of the same molecule?
**A.** > 100 µM

**Q.** And the EC50 [15]?
**A.** > 100 µM

**Q.** And the EC50 [34]?
**A.** > 100 µM

**Q.** What about the CC50 [35] of the same molecule?
**A.** > 100 µM

**Q.** Which CC50 [30] does the source give for `CC(C)OC(=O)[C@H](C)N[P@](=O)(OC[C@H]1N[C@@H](c2ccc3c(N)ncnn23)[C@H](O)[C@@H]1O)Oc1ccccc1` here?
**A.** 9.9 µM

**Q.** What about the selectivity ratio [8] of the same molecule?
**A.** > 32

**Q.** What about the EC50 [31] of the same molecule?
**A.** 1.1 µM

**Q.** And the CC50 [9]?
**A.** > 32 µM

**Q.** What about the EC50 [12] of the same molecule?
**A.** 0.99 µM

**Q.** And the CC50 [32]?
**A.** 9.9 µM

**Q.** What about the EC50 [33] of the same molecule?
**A.** 13 µM

**Q.** What about the CC50 [14] of the same molecule?
**A.** > 32 µM

**Q.** And the EC50 [15]?
**A.** 4.7 µM

**Q.** What about the selectivity ratio [36] of the same molecule?
**A.** 9

**Q.** And the selectivity ratio [37]?
**A.** > 6.8

**Q.** And the EC50 [34]?
**A.** 3.6 µM

**Q.** What about the CC50 [35] of the same molecule?
**A.** 68 µM

**Q.** And the selectivity ratio [27]?
**A.** 5.2

**Q.** With `NC(=O)c1ncn([C@@H]2O[C@H](CO)[C@@H](O)[C@H]2O)n1` [RIBAVIRIN] as the molecule, how does the EC50 [38] read?
**A.** 1.9 µM

**Q.** What about the CC50 [39] of the same molecule?
**A.** > 1000 µM

**Q.** And the CC50 [40]?
**A.** > 1000 µM

**Q.** And the EC50 [41]?
**A.** 1.9 µM

**Q.** What about the EC50 [42] of the same molecule?
**A.** 1.9 µM

**Q.** And the EC50 [43]?
**A.** 10 µM

**Q.** And the CC50 [44]?
**A.** > 1000 µM

From ChEMBL document CHEMBL5257097, “An Isomer of Galidesivir That Potently Inhibits Influenza Viruses and Members of the Bunyavirales Order” (ACS Med Chem Lett, 2023)
